Reference: patent publication US6500817B1, “Thiazolyl urea derivatives and their utilization as antiviral agents” (Bayer Aktiengesellschaft, priority 1999, dated 2002)

Tested on: HSV-2 G
Assay: anti-HSV screening test (cytopathogenic effect, fluorescein diacetate fluorescence readout) in Vero cells
Assay type: cell-based
Details: Human alphaherpesvirus 2; Vero cells infected with HSV-2 G, m.o.i. 0.0025; half-maximum fluorescence intensity in relation to the uninfected cell control; read-out: IC50 HSV-2 G/Vero
Method: (§1) HSV (HSV-1 Walki, HSV-1F or HSV-2G) was replicated on Vero cells (ATCC CCL-81) under the following conditions: the cells were grown in M199 medium (5% fetal calf serum, 2 mM glutamine, 100 IU/ml penicillin, 100 μg/ml streptomycin) in cell culture bottles at 37° C. and 5% CO2. The cells were split 1:4 on each of two occasions each week. For the infection, the medium was removed, and the cells were washed with Hank's solution, detached with 0.05% trypsin, 0.02% EDTA (Seromed L2143) and incubated at a density of 4×10^5 cells per ml under the conditions mentioned above for 24 hours. The medium was then removed, and the virus solution was added at an m.o.i. of <0.05 in a volume of 2 ml per 175 cm^2 of surface area. After incubation under the conditions mentioned for one hour, the medium was made up to a volume of 50 ml per 175 cm^2 bottle. […] The virus was released by freezing (−80° C.) and thawing (37° C.) twice. The cell debris was removed by centrifugation (300 g, 10 min, 4° C.) and the supernatant was frozen in aliquots at −80° C.
(§2) The anti-HSV effect was determined in a screening test system in 96-well microtitre plates with the assistance of various cell lines of neuronal, lymphoid and epithelial origin, such as, for example, Vero (African green monkey kidney cell line), MEF (murine embryonic fibroblasts), HELF (human embryonic fibroblasts), NT2 (human neuronal cell line) or Jurkat (human lymphoid T-cell line).
(§3) The substances dissolved (50 mM) in DMSO (dimethyl sulphoxide) are investigated on microtitre plates (for example 96-well MTP) in final concentrations of 250-0.5 μM (micromolar) in duplicate determinations (4 substances/plate). For potent substances, the dilutions are continued over several plates as far as 0.5 pM (picomolar). Toxic and cytostatic effects of the substance are also recorded. After the appropriate dilutions of the substance (1:2) on the microtitre plate, a suspension of cells (1×10^4 cells per well) such as, for example, Vero cells in M199 (medium 199) with 5% fetal calf serum, 2 mM glutamine and optionally 100 IU/ml penicillin and 100 μg/ml streptomycin or MEF cells in EMEM (Eagle's minimum essential medium) with 10% fetal calf serum, 2 mM glutamine and optionally 100 IU/ml penicillin and 100 μg/ml streptomycin, or HELF cells in EMEM with 10% fetal calf serum, 2 mM glutamine and optionally 100 IU/ml penicillin and 100 μg/ml streptomycin, or NT2 and Jurkat cells in DMEM ([…] glucose plus pyridoxine) with 10% fetal calf serum, 2 mM glutamine, 1 mM sodium pyruvate, nonessential amino acids and optionally 100 IU/ml penicillin and 100 μg/ml streptomycin is put in each well, and the cells in the relevant wells are infected with an appropriate amount of virus (HSV-1 F or HSV-2 G with an m.o.i (multiplicity of infection) of 0.0025 for HELF, Vero and MEF cells and with an m.o.i of 0.1 for NT2 and Jurkat cells). The plates are then incubated at 37° C. in a CO2 incubator (5% CO2) for several days. […] The plates are initially evaluated optically using a microscope and then analysed with a fluorescent dye. For this purpose, the cell culture supernatant is aspirated out of all the wells of the MTP and charged with 200 μl of PBS washing solution.
CNS(=O)(=O)c1sc(N(C)C(=O)Nc2ccc(N3CCCC3)cc2)nc1C [Example 94] gave an IC50 of 50 nM.
CNS(=O)(=O)c1sc(N(C)C(=O)Nc2ccc(-c3ccccc3)cc2)nc1C [Example 123] showed an IC50 of 5 nM.
For CCOc1ccc(NC(=O)N(CCN(C)C)c2nc(C)c(S(=O)(=O)NC)s2)cc1 [Example 2, 2-{[2-(Dimethylamino)ethyl][(4-ethoxyanilino)carbonyl]amino}-N,4-dimethyl-1,3-thiazole-5-sulphonamide], the IC50 was 1000 nM.

Tested on: HSV-1 F
Assay: as above
Assay type: cell-based
Details: Human alphaherpesvirus 1; Vero cells infected with HSV-1 F, m.o.i. 0.0025; half-maximum fluorescence intensity in relation to the uninfected cell control; read-out: IC50 HSV-1 F/Vero
Method: as §1, §2, §3
For CNS(=O)(=O)c1sc(N(C)C(=O)Nc2ccc(N3CCCC3)cc2)nc1C [Example 94], the IC50 was 20 nM.
With CNS(=O)(=O)c1sc(N(C)C(=O)Nc2ccc(-c3ccccc3)cc2)nc1C [Example 123] the IC50 was 1 nM.
In the case of CCOc1ccc(NC(=O)N(CCN(C)C)c2nc(C)c(S(=O)(=O)NC)s2)cc1 [Example 2, 2-{[2-(Dimethylamino)ethyl][(4-ethoxyanilino)carbonyl]amino}-N,4-dimethyl-1,3-thiazole-5-sulphonamide], the IC50 is reported as 200 nM.

Tested on: not given
Assay: not given
Details: not given
CNS(=O)(=O)c1sc(N(C)C(=O)Nc2ccc(-c3ccccc3)cc2)nc1C [Example 123] showed a melting point of 210 °C.
With CNS(=O)(=O)c1sc(N(C)C(=O)Nc2ccc(-c3ccccc3C)cc2C)nc1C the melting point was 148 °C.
For CCOc1ccc(NC(=O)N(Cc2ccncc2)c2nc(C)c(S(=O)(=O)NC3CC3)s2)cc1, the melting point was 200 °C.
Work on CCOc1ccc(NC(=O)N(Cc2cccnc2)c2nc(C)c(S(N)(=O)=O)s2)cc1 yielded a melting point of 193 °C.
CC(=O)Nc1cc(N2CCCC2)ccc1NC(=O)N(C)c1nc(C)c(S(=O)(=O)N(C)C)s1 [169] showed a melting point of 162 to 163 °C.
CCn1c(=O)oc2cc(NC(=O)N(C)c3nc(Cl)c(S(=O)(=O)N(C)C)s3)ccc21 showed a melting point of 232 °C.
With CNS(=O)(=O)c1sc(N(CCCN2CCN(C)CC2)C(=O)Nc2ccc(-c3ccccc3)cc2)nc1C the melting point was 188 °C.
With CCCN(C(=O)Nc1ccc(-c2ccccc2)cc1)c1nc(C)c(S(=O)(=O)NCC(F)(F)F)s1 the melting point was 146 °C.
CCN(C(=O)Nc1ccc(N2CCOCC2)cc1)c1nc(Cl)c(S(=O)(=O)N(C)C)s1 showed a melting point of 190 °C.
CCCN(C(=O)Nc1ccc(N2CCOCC2)cc1)c1nc(C)c(S(=O)(=O)NC)s1 showed a melting point of 179 °C.
In the case of Cc1nc(N(C)C(=O)Nc2ccc(-c3ccccc3)cc2)sc1S(N)(=O)=O, the melting point is reported as 221 °C.
Work on CCOc1ccc(NC(=O)N(CCN(C)C)c2nc(CC)c(S(=O)(=O)NC)s2)cc1 yielded a melting point of 208 °C.
For CCOc1ccc(NC(=O)N(Cc2ccccc2)c2nc(C)c(S(=O)(=O)NC3CC3)s2)cc1, the melting point was 178 °C.
Compound Cc1nc(N(C)C(=O)Nc2ccc(N3CCOCC3)cc2)sc1S(N)(=O)=O has a melting point of 225 °C.
Cc1nc(N(C)C(=O)Nc2ccc(-c3cccn3C(=O)OC(C)(C)C)cc2)sc1S(=O)(=O)N(C)C showed a melting point of 84 °C.
CCOc1ccc(NC(=O)N(C)c2nc(C)c(S(=O)(=O)N(C)C)s2)cc1 showed a melting point of 168 °C.
In the case of Cc1nc(NC(=O)Nc2ccc(-c3ccccc3)cc2)sc1S(=O)(=O)N(C)C, the melting point is reported as > 250 °C.
Compound CCc1nc(N(CCCO)C(=O)Nc2ccc(N3CCOCC3)cc2)sc1S(=O)(=O)NC has a melting point of 169 °C.
CNS(=O)(=O)c1sc(N(CCN(C)C)C(=O)Nc2ccc(N3CCCC3)cc2)nc1C gave a melting point of 188 °C.
Cc1nc(N(C)C(=O)Nc2ccc(N3CCCC3)cc2)sc1S(N)(=O)=O showed a melting point of 209 °C.
For CCOc1ccc(NC(=O)N(C)c2nc(C)c(S(=O)(=O)NCc3cccc(OC)c3)s2)cc1, the melting point was 134 °C.
CCOc1ccc(NC(=O)N(C)c2nc(Cl)c(S(=O)(=O)NC)s2)cc1 showed a melting point of 183 °C.
Work on COCCN(C(=O)Nc1ccc(N2CCOCC2)cc1)c1nc(C)c(S(N)(=O)=O)s1 yielded a melting point of 201 °C.
Compound COCCN(C)S(=O)(=O)c1sc(N(C)C(=O)Nc2ccc(N3CCOCC3)cc2)nc1C has a melting point of 156 °C.
CN(C(=O)Nc1ccc(N2CCOCC2)cc1)c1nc(Cl)c(S(=O)(=O)N(C)C)s1 [9] gave a melting point of 210 °C.
Work on CNS(=O)(=O)c1sc(N(CCOC)C(=O)Nc2ccc(N3CCOCC3)cc2)nc1C yielded a melting point of 188 °C.
For Cc1nc(N(C)C(=O)Nc2ccc(C3=NOCCO3)cc2)sc1S(=O)(=O)NC1CC1, the melting point was > 225 °C.
Compound COCCN(C(=O)Nc1ccc(-c2ccccc2)cc1)c1nc(C)c(S(=O)(=O)NC2CC2)s1 has a melting point of 160 °C.
Compound Cc1nc(N(C)C(=O)Nc2ccc(N3CCOCC3)cc2)sc1S(=O)(=O)N(C)C [67] has a melting point of 171 °C.
With CCOc1ccc(NC(=O)N(C)c2nc(CC)c(S(=O)(=O)N(C)C)s2)cc1 the melting point was 176 °C.
For CCOc1ccc(NC(=O)N(CCCNC(=O)OC(C)(C)C)c2nc(C)c(S(=O)(=O)NCC(F)(F)F)s2)cc1 [135], the melting point was 161 °C.
Compound Cc1nc(N(C)C(=O)Nc2ccc(N3CCSCC3)cc2)sc1S(=O)(=O)N(C)C has a melting point of 196 °C.
Cc1nc(N(C)C(=O)Nc2ccc(N3CCCC3)cc2)sc1S(=O)(=O)NCC1CC1 gave a melting point of 205 °C.
With CCOc1ccc(NC(=O)N(CCOC)c2nc(C)c(S(=O)(=O)NC3CC3)s2)cc1 the melting point was 164 °C.
With CNS(=O)(=O)c1sc(N(Cc2ccncc2)C(=O)Nc2ccc(N3CCCC3)cc2)nc1C the melting point was 208 °C.
Compound CCOc1ccc(NC(=O)N(CCCCO)c2nc(C)c(S(=O)(=O)NC)s2)cc1 has a melting point of 164 °C.
For CCc1nc(N(CCCN(CC)CC)C(=O)Nc2ccc(-c3ccccc3)cc2)sc1S(N)(=O)=O, the melting point was 177 °C.
CCOc1ccc(NC(=O)N(C)c2nc(C)c(S(=O)(=O)NCC3CCCO3)s2)cc1 (stereo not drawn) showed a melting point of 168 °C.
In the case of CCOc1ccc(NC(=O)N(CCCN2CCCC2=O)c2nc(C)c(S(=O)(=O)NC)s2)cc1, the melting point is reported as 188 °C.
CCCN(C(=O)Nc1ccc(OCC)cc1)c1nc(C)c(S(=O)(=O)NC2CC2)s1 showed a melting point of 141 °C.
With CCCOc1ccc(NC(=O)N(C)c2nc(C)c(S(=O)(=O)N(C)C)s2)cc1 the melting point was 147 °C.
For CNS(=O)(=O)c1sc(N(CCCN2CCCC2=O)C(=O)Nc2ccc(-c3ccccc3)cc2)nc1C, the melting point was 148 °C.
For CCOC(=O)N1CC2CCN(c3ccc(NC(=O)N(C)c4nc(S(=O)(=O)NC)c(C)s4)cc3)C2C1 (stereo not drawn), the melting point was 153 to 154 °C.
In the case of CCOc1ccc(NC(=O)N(CCN(C)C)c2nc(C)c(S(=O)(=O)N(C)C)s2)cc1, the melting point is reported as 163 °C.
In the case of Cc1nc(N(C)C(=O)Nc2ccc(-n3cccc3)cc2)sc1S(=O)(=O)NC1CC1, the melting point is reported as 194 °C.
Work on CCOc1ccc(NC(=O)N(CCCNC(=O)OC(C)(C)C)c2nc(C)c(S(=O)(=O)NC)s2)cc1 yielded a melting point of 146 °C.
With CNS(=O)(=O)c1sc(N(C)C(=O)Nc2ccc(C3=NOCCO3)cc2)nc1C the melting point was 192 to 194 °C.
With CCOc1ccc(NC(=O)N(CCO)c2nc(C)c(S(=O)(=O)N(C)C)s2)cc1 the melting point was 160 °C.
For CCc1nc(N(C)C(=O)Nc2ccc(N3CCCC3)cc2)sc1S(=O)(=O)NC, the melting point was 217 °C.
CCOc1ccc(NC(=O)N(CCCNC(=O)OC(C)(C)C)c2nc(C)c(S(=O)(=O)N(C)C)s2)cc1 gave a melting point of 130 °C.
Compound CCOc1ccc(NC(=O)N(C)c2nc(Cl)c(S(=O)(=O)NC3CC3)s2)cc1 has a melting point of 183 °C.
COC(=O)c1ccc(NC(=O)N(C)C2=NC(Cl)C(S(=O)(=O)N(C)C)S2)cc1 (stereo not drawn) gave a melting point of 220 °C.
With CCOc1ccc(NC(=O)N(C)c2nc(C)c(S(=O)(=O)NCc3ccco3)s2)cc1 the melting point was 162 °C.
With CNS(=O)(=O)c1sc(N(C)C(=O)Nc2ccc(N3CCC(NC(=O)OC(C)(C)C)C3)cc2)nc1C (stereo not drawn) the melting point was 188 to 189 °C (dec.).
In the case of Cc1nc(N(C)C(=O)Nc2ccc(N3CC=CC3)cc2)sc1S(=O)(=O)NC1CC1, the melting point is reported as 186 to 187 °C.
CCOc1ccc(NC(=O)N(CCOC)c2nc(C)c(S(N)(=O)=O)s2)cc1 gave a melting point of 171 °C.
For CCOc1ccc(NC(=O)N(CCCO)c2nc(C)c(S(=O)(=O)N(C)C)s2)cc1, the melting point was 147 °C.
In the case of Cc1nc(N(C)C(=O)Nc2ccc(-c3ncon3)cc2)sc1S(=O)(=O)N(C)C, the melting point is reported as 184 to 186 °C.
For CNS(=O)(=O)c1sc(N(C)C(=O)Nc2ccc(N3CCOCC3)cc2)nc1Cl, the melting point was 228 °C.
In the case of CSc1ccc(NC(=O)N(C)c2nc(Cl)c(S(=O)(=O)N(C)C)s2)cc1, the melting point is reported as 194 °C.
